SMILES strings stand for the structures.

Consider eleven compounds from ChEMBL document CHEMBL1122802, “Pyrido[3',2':4,5]thieno[3,2-d]-N-triazines: a new series of orally active antiallergic agents” (J Med Chem, 1984).

The species named for test [1] is Rattus norvegicus. Description: Effective dose required for inhibition of passive cutaneous anaphylaxis (PCA) in the rat at multiple dose levels. Format: functional.
For test [2], the system named is Rattus norvegicus. Description: Percent inhibition of antigen induced release of histamine (AIR) in vitro from rat peritoneal mast cells (RMC) […]. The class given is functional.
The subject of test [3] is Rattus norvegicus. Description: Inhibition of passive cutaneous anaphylaxis (PCA) in the rat at 25 mg /kg.(orally). Format: functional. The following applies: po.
The species entered for test [4] is Rattus norvegicus. Description: Evaluated on antigen induced release of histamine (AIR) in vitro from rat peritoneal mast cells (RMC) at multiple dose levels. As to conditions: Mast cell, read-out: I 50. The class given is functional, cell-based.
In test [5] the test system is Rattus norvegicus. Description: Percent inhibition of antigen induced release of histamine (AIR) in vitro from rat peritoneal mast cells (RMC) […]. The class given is functional.
Test [6] relates to Rattus norvegicus. Description: Inhibition of passive cutaneous anaphylaxis (PCA) in the rat at 30 mg /kg.(orally). Format: functional. The following applies: po.

What is called ED50 is the midpoint of the dose-response relation. Higher therefore signals weaker potency. As usually defined, the inhibition in vivo is the change of the read-out against control, counted positive when it falls. A high value points to strong suppression. In turn, `CCOc1nnnc2c1sc1nc(C)ccc12` displayed an ED50 in test [1] of 27 mg/kg. Moreover, the I in test [2] was found to be 18%. In test [3], this compound gave an inhibition in vivo at 25 mg/kg of 52%.
`CCOCOc1nnnc2c1sc1nc(C)ccc12`: the IC50 in test [4] is 6 µM. The compound further registered an inhibition in vivo at 25 mg/kg in test [3] of 22%.
For `Cc1ccc2c(n1)sc1c(N)nnnc12`, the IC50 in test [4] worked out at 1.7 µM. Further, the inhibition in vivo at 25 mg/kg in test [3] came to 38%.
Turning to `Cc1ccc2c(n1)sc1cnnnc12`, in test [1], the 50% effective dose (ED50) is 1.5 mg/kg. For the same compound, the IC50 in test [4] was 29 µM. In test [3], this compound came in with an inhibition in vivo at 25 mg/kg of 93%.
Turning to `CSc1nnnc2c1sc1nc(C)ccc12`, the I in test [2] was found to be 4%.
As for `Cc1ccc2c(n1)sc1c(S)nnnc12`, the IC50 in test [4] came out at 0.1 µM.
`Cc1ccc2c(n1)sc1c(O)nnnc12` yielded an ED50 in test [1] of 5.2 mg/kg. The IC50 in test [4] stood at 0.25 µM. The inhibition in vivo at 25 mg/kg in test [3] was 88%.
For the compound `CNc1nnnc2c1sc1nc(C)ccc12`, in test [4], the IC50 was 11 µM. Besides, the inhibition in vivo at 25 mg/kg in test [3] was 32%.
As for `COC(=O)NNc1nnnc2c1sc1nc(C)ccc12`, the I in test [5] is 21%. This compound also showed an inhibition in vivo at 25 mg/kg in test [3] of 5%.
In test [6], `Oc1nnnc2c1sc1nc(-c3ccccc3)ccc12` displayed an inhibition in vivo at 30 mg/kg of 68%. Also, in test [1], the ED50 was 3 mg/kg. Also, the IC50 in test [4] came to 0.05 µM.
Compound `Cc1cc(C)c2c(n1)sc1c(O)nnnc12` displayed a median effective dose (ED50) in test [1] of 3.6 mg/kg. In test [4], the IC50 amounted to 80 µM. In addition, at 25 mg/kg the inhibition in vivo in test [3] was 70%.
